Assay results: patent US20230293447A1, “CLEAVABLE LIPIDIC COMPOUNDS, COMPOSITIONS CONTAINING THEREOF, AND USES THEREOF” (priority 2020, published 2023)

How the values were obtained:
[1] = UHPLC-CAD-MS analysis of cleavage of DOG-Cleave during LNP formulation process; assay type: physicochemical; settings: from extracted ion chromatograms, same response factor assumed
hEPO = hEPO expression in mouse serum after intramuscular injection of LNPs containing hEPO mRNA (ELISA); assay type: in vivo, Balb/c ByJ mice; settings: 1 μg-dose of hEPO mRNA IM in quadriceps, serum 6 hours post-injection; LNPs lipid/DSPC/Chol/DMG-PEG2000 50:10:3.5:1.5, N/P 12
Description: LNPs comprising lipidic compound of formula (III) (or DOG-Cleave) or one of the compounds (VI), (XVII), (XIX), (XXI), (XXII), (XXIV), (XXVII) and (XXVIII), DSPC, Chol and DMG-PEG2000 at a molar ratio of 50:10:3.5:1.5, and hEPO mRNA at a N/P charge ratio=12 (unless otherwise specified in the table), were prepared as described in Example 30 by using the NanoassemblR. An Aqueous/Ethanolic phase volume ratio of 3/1 and at total flow rate of 4 mL/min was used. LNPs were prepared at a concentration of 60 μg of hEPO mRNA/mL in PBS 1×.
Four 8-week-old mice per group were injected on DO via intramuscular route in the quadriceps with 1 μg-dose of hEPO mRNA formulated in LNPs Lip. (IV)/DSPC under a final volume of 50 μL. As negative control, 4 mice received the same volume of PBS (for accelerated stability study and lipid screening) or Citrate Buffer (lipid screening)
Blood samples were collected 6 hours post-injection to measure the expression of hEPO in serum using a specific ELISA assay.
Blood samples were collected 6 hours post-injection by carotid section under deep anesthesia with Imalgene/Rompun (1.6 mg of Ketamine/0.32 mg of Xylazine) in serum-separation tubes (BD Vacutainer #BD367957). Sera were aliquoted and stored at −20° C. until hEPO determination.
hEPO expression in mouse sera was assessed using human Erythropoietin Quantikine IVD ELISA kit (R&D Systems #DEP00). The ELISA was performed following supplier's instructions. Briefly, sera were added in pre-coated plates and incubated for one hour at room temperature under orbital shaking. After sera removal, Erythropoietin conjugate was added for one hour at room temperature under orbital shaking. Plates were washed and Substrate solution was added for 20-25 minutes at room temperature before stopping the reaction with Stop solution. Absorbance at 450 nm with 650 nm signal subtraction was determined in a microplate reader. Data were analyzed using SoftmaxPro software and expressed in log 10 of the concentration of hEPO measured in mouse sera in pg/mL.

Molecule	EPO secretion IM (hEPO)	also measured
CCCCCCCC/C=C\CCCCCCCCOCC(COCCOCCOCCOCCOC(=O)CNCCOC(=O)CNCCOC)OCCCCCCCC/C=C\CCCCCCCC.O=C(O)C(F)(F)F.O=C(O)C(F)(F)F (centres unmarked) [Compound (III), 2-[[2-[2-[2-[2-[2-[2,3-bis[(Z)-octadec-9-enoxy]propoxy]ethoxy]ethoxy]ethoxy]ethoxy]-2-oxo-ethyl]amino]ethyl 2-(2-methoxyethylamino)acetate;2,2,2-trifluoroacetic Acid]	1.5 Log10 pg/ml	Relative amount in DOG-Cleave EtOH solution [1]: 75%; Relative amount in Final LNP [1]: 25%; Relative amount in LNP after 1st dialysis [1]: 59%
CCCCCCCC/C=C\CCCCCCCCOCC(COCCOCCOCCOCCOC(=O)CNCCOC(=O)[C@@H](N)COC)OCCCCCCCC/C=C\CCCCCCCC.Cl (stereo partly drawn) [Compound (VI), 2-[[2-[2-[2-[2-[2-[2,3-bis[(Z)-octadec-9-enoxy]propoxy]ethoxy]ethoxy]ethoxy]ethoxy]-2-oxoethyl]amino]ethyl (2S)-2-amino-3-methoxy-propanoate; Hydrochloride]	2.1 Log10 pg/ml	
CCCCCCCCC=CCCCCCCCCOCC(OCCCCCCCCC=CCCCCCCCC)C(=O)N(CCCCCCCC)CCOCCOCCOCCOCCOC(=O)CNCCOC(=O)CNCCOC.O=C(O)C(F)(F)F (centres unmarked) [Compound (XIX), 2-[[2-[2-[2-[2-[2-[2-[2,3-bis[(Z)-octadec-9-enoxy]propanoyl-octylamino]ethoxy]ethoxy]ethoxy]ethoxy]ethoxy]-2-oxo-ethyl]amino]ethyl 2-(2-methoxyethylamino)acetate;2,2,2-trifluoroacetic Acid]	2.4 Log10 pg/ml	
CCCCCCC(CCCC)C(=O)OCCCCCCOCC(COCCOCCOCCOCCOC(=O)CNCCOC(=O)CNCCOC)OCCCCCCOC(=O)C(CCCC)CCCCCC (centres unmarked) [Compound (XXII), 6-[2-[6-(2-butyloctanoyloxy)hexoxy]-3-[2-[2-[2-[2-[2-[2-[2-(2-methoxyethylamino)acetyl]oxyethylamino]acetyl]oxyethoxy]ethoxy]ethoxy]ethoxy]propoxy]hexyl 2-butyloctanoate;2,2,2-trifluoroacetic Acid]	2.5 Log10 pg/ml	
CCCCCCCCC=CCCCCCCCCOCC(OCCCCCCCCC=CCCCCCCCC)C(CCCCCCCCCCCC)OC(=O)NCCOCCOCCOCCOC(=O)CNCCOC(=O)CNCCOC.O=C(O)C(F)(F)F (centres unmarked) [Compound (XXIV), 2-[[2-[2-[2-[2-[2-[1-[1,2-bis[(Z)-octadec-9-enoxy]ethyl]tridecoxycarbonylamino]ethoxy]ethoxy]ethoxy]ethoxy]-2-oxo-ethyl]amino]ethyl 2-(2-methoxyethylamino)acetate;2,2,2-trifluoroacetic Acid]	1.9 Log10 pg/ml	
CCCCCCCCCOC(=O)CCCCCCCN(CCCCCCCC(=O)OC(CCCCCCCC)CCCCCCCC)C(=O)CCOCCOCCOCCOC(=O)CNCCOC(=O)CNCCOC [Compound (XXVII), nonyl 8-[3-[2-[2-[2-[2-[2-[2-(2-methoxyethylamino)acetyl]oxyethylamino]acetyl]oxyethoxy]ethoxy]ethoxy]propanoyl-[8-(1-octylnonoxy)-8-oxo-octyl]amino]octanoate;2,2,2-trifluoroacetic Acid]	1.9 Log10 pg/ml	
CCCCCCCCC(CCCCCC)C(=O)OCCCCCCOCC(OCCCCCCOC(=O)C(CCCCCC)CCCCCCCC)C(=O)N(CCCCCCCC)CCOCCOCCOCCOCCOC(=O)CNCCOC(=O)CNCCOC (centres unmarked) [Compound (XXVIII), 6-[2-[6-(2-hexyldecanoyloxy)hexoxy]-3-[2-[2-[2-[2-[2-[2-[2-[2-(2-methoxyethylamino)acetyl]oxyethylamino]acetyl]oxyethoxy]ethoxy]ethoxy]ethoxy]ethyl-octyl-amino]-3-oxopropoxy]hexyl 2-hexyldecanoate;2,2,2-trifluoroacetic acid]	2.3 Log10 pg/ml	
[(Z)-non-2-enyl] 8-[3-[2-[2-[2-[2-[2-[2-[2-(2-methoxyethylamino)acetyl]oxyethylamino]acetyl]oxyethoxy]ethoxy]ethoxy]ethoxy]-2-[8-[(Z)-non-2-enoxy]-8-oxo-octoxy]propoxy]octanoate;2,2,2-trifluoroacetic Acid [Compound (XVII)]	2.4 Log10 pg/ml	
